# Test results published in US11214803B2, “Modulators of YAP1 expression” (Ionis Pharmaceuticals, Inc., priority 2019, dated 2022).
# Strand notation (5' to 3'): a small letter for the sugar, then the base; units joined by * are phosphorothioate-linked, units joined directly phosphodiester-linked; [ ] holds rarer units or linkages, { } end groups; capitals alone tell only the bases. k = constrained ethyl (cEt); [5mC] = 5-methylcytosine; d = 2'-deoxy (DNA)
# Test system: Yap1 mRNA
# Assay: Antisense inhibition of human Yap1 in A-431 cells by cEt gapmers, single dose (Example 2, RTS4814)
# Assay type: cell-based
# How it was run: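 Yap1 mRNA levels, by real-time RT-PCR (RTS4814) and corrected for total RNA via RIBOGREEN, are given as percent of untreated cells. Gapmers (16-mer, cEt wings, phosphorothioate, 5-methylC) were delivered without transfection at 2,000 nM to A-431 cells for about 48 hours.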
# [1] = Yap1 mRNA as percent of untreated control, A-431 cells, 3-10-3 cEt gapmers targeting SEQ ID NO.: 1, and 2, Table 31
# [2] = Table 25, Yap1 mRNA as percent of untreated control, 3-10-3 cEt gapmers targeting SEQ ID NO.: 1, and 2
# [3] = Table 23, Yap1 mRNA as percent of untreated control, 3-10-3 cEt gapmers, single dose
# [4] = A-431 cells, 5,000 cells per well, free uptake, 2,000 nM modified oligonucleotide, approx. 48 hours, RTS4814, normalized to RIBOGREEN, Table 4, asterisk (*) = targets amplicon region of primer probe set
# [5] = Table 5, A-431 cells, 5,000 cells per well, free uptake, 2,000 nM modified oligonucleotide, approx. 48 hours, RTS4814, normalized to RIBOGREEN, Yap1 mRNA relative to untreated control cells
# [6] = Table 24, Yap1 mRNA as percent of untreated control, 3-10-3 cEt gapmers targeting SEQ ID NO.: 1, and 2
# [7] = Table 19, A-431 cells, 5,000 cells per well, free uptake, 2,000 nM modified oligonucleotide, approx. 48 hours, RTS4814, normalized to RIBOGREEN, Yap1 mRNA as percent of untreated control
# [8] = Table 20, Yap1 mRNA, percent of untreated control, 3-10-3 cEt gapmers targeting SEQ ID NO.: 1 and 2
# [9] = Table 6, A-431 cells, 5,000 cells per well, free uptake, 2,000 nM modified oligonucleotide, approx. 48 hours, RTS4814, normalized to RIBOGREEN, Yap1 mRNA relative to untreated control cells
# [10] = Table 32, Yap1 mRNA, percent of untreated control, 3-10-3 cEt gapmers targeting SEQ ID NO.: 1, and 2
# [11] = Yap1 mRNA as percent of untreated control, A-431 cells, 3-10-3 cEt gapmers targeting SEQ ID NO.: 1, and 2, Table 30
# [12] = Table 33, Yap1 mRNA, percent of untreated control, 3-10-3 cEt gapmers targeting SEQ ID NO.: 1, and 2
# [13] = Table 22, Yap1 mRNA as percent of untreated control, 3-10-3 cEt gapmers, single dose
substance,measurement,setting,value
1075697 (kA*kA*kT*dA*dA*dT*d[5mC]*d[5mC]*dA*dT*dG*d[5mC]*dT*kT*kG*k[5mC]; antisense) [compound 1075697],YAP1 (% UTC),[1],16 % UTC
1076331 (k[5mC]*kA*kT*dT*dA*dT*dT*d[5mC]*dA*dG*dT*dA*dG*kT*kT*kG; antisense) [Compound 1076331],YAP1 (% UTC),[2],71 % UTC
1075433 (antisense kT*kT*kA*dA*d[5mC]*dT*dA*dA*d[5mC]*dT*dA*dA*dA*k[5mC]*kT*kG) [Compound 1075433],YAP1 (% UTC),[3],124 % UTC
716397 (kG*kG*k[5mC]*d[5mC]*dT*d[5mC]*dA*d[5mC]*d[5mC]*dT*dG*d[5mC]*d[5mC]*kG*kA*kA; antisense) [Compound 716397],YAP1 (% UTC),[4],88 % UTC
716548 (kG*kA*kG*dT*dT*dT*d[5mC]*dA*dA*d[5mC]*dA*d[5mC]*dT*kG*kA*kT; antisense) [Compound 716548],YAP1 (% UTC),[5],31 % UTC
1076273 (kA*kA*kA*d[5mC]*dA*dA*dA*dA*dT*dG*dG*d[5mC]*dG*kA*kA*kT; antisense) [compound 1076273],YAP1 (% UTC),[1],84 % UTC
1075210 (antisense kG*kT*kA*dT*dT*dT*dT*dA*dA*d[5mC]*d[5mC]*dT*dA*kA*kA*k[5mC]) [Compound 1075210],YAP1 (% UTC),[6],100 % UTC
1075909 (kA*kA*kA*dT*dA*dA*dG*dG*dA*dG*dT*dA*dG*kG*kT*kG; antisense) [Compound 1075909],YAP1 (% UTC),[7],93 % UTC
1076454 (kT*kA*kA*dA*d[5mC]*dT*dA*dA*dT*d[5mC]*d[5mC]*d[5mC]*dA*kT*kA*kT; antisense) [Compound 1076454],YAP1 (% UTC),[8],35 % UTC
1074794 (k[5mC]*kA*kA*dA*dT*d[5mC]*dA*dA*dT*dG*dT*dG*d[5mC]*kT*k[5mC]*k[5mC]; antisense) [Compound 1074794],YAP1 (% UTC),[6],5 % UTC
716441 (kG*k[5mC]*k[5mC]*dT*dT*dG*dG*dT*dT*dT*d[5mC]*dA*dG*k[5mC]*kT*kA; antisense) [Compound 716441],YAP1 (% UTC),[9],57 % UTC
1076306 (k[5mC]*kT*kT*dT*dA*d[5mC]*dT*dA*d[5mC]*dT*dA*dA*dT*kA*kA*kG; antisense) [compound 1076306],YAP1 (% UTC),[10],99 % UTC
1075056 (antisense k[5mC]*kT*kT*dT*dA*dT*dT*dA*dT*d[5mC]*dT*d[5mC]*dA*kA*k[5mC]*k[5mC]) [compound 1075056],YAP1 (% UTC),[11],21 % UTC
1075301 (k[5mC]*kA*kG*d[5mC]*dA*dA*d[5mC]*dA*d[5mC]*d[5mC]*dT*dA*dA*kG*kG*kA; antisense) [Compound 1075301],YAP1 (% UTC),[7],92 % UTC
1075953 (kA*kA*k[5mC]*d[5mC]*dT*dA*dT*dA*dT*dA*d[5mC]*d[5mC]*dT*kG*k[5mC]*kT; antisense) [compound 1075953],YAP1 (% UTC),[1],36 % UTC
1076371 (antisense kT*kA*kA*dG*dA*dA*d[5mC]*dG*dA*dA*d[5mC]*d[5mC]*dT*k[5mC]*k[5mC]*kA) [compound 1076371],YAP1 (% UTC),[12],49 % UTC
1075499 (kG*k[5mC]*kT*dA*dA*dA*dA*dA*dA*dT*dG*dA*dG*kT*kA*kG; antisense) [Compound 1075499],YAP1 (% UTC),[2],99 % UTC
1074921 (antisense k[5mC]*kA*k[5mC]*dT*d[5mC]*dA*dA*dG*dT*dT*dA*d[5mC]*dA*kT*k[5mC]*k[5mC]) [Compound 1074921],YAP1 (% UTC),[3],65 % UTC
1074341 (antisense kA*kT*k[5mC]*d[5mC]*d[5mC]*dG*dG*dG*dA*dG*dA*dA*dG*kA*k[5mC]*kA) [Compound 1074341],YAP1 (% UTC),[7],106 % UTC
1075813 (kA*k[5mC]*kT*dA*dA*dT*dA*dT*dG*d[5mC]*dA*dA*d[5mC]*kT*k[5mC]*kT; antisense) [Compound 1075813],YAP1 (% UTC),[7],4 % UTC
1074770 (kA*kT*k[5mC]*dT*dT*dA*dT*d[5mC]*d[5mC]*d[5mC]*dA*dA*dT*kG*k[5mC]*kT; antisense) [compound 1074770],YAP1 (% UTC),[10],15 % UTC
1076531 (kA*k[5mC]*kT*dA*dT*dA*dA*dA*dG*dG*dG*dT*dT*kT*kA*kG; antisense) [compound 1076531],YAP1 (% UTC),[12],66 % UTC
1075985 (kA*kT*kA*dT*d[5mC]*dG*dA*dA*dA*dA*dG*d[5mC]*dA*kA*kA*k[5mC]; antisense) [compound 1075985],YAP1 (% UTC),[1],82 % UTC
1074567 (antisense kA*kA*k[5mC]*d[5mC]*dT*dA*d[5mC]*dT*d[5mC]*dA*d[5mC]*dT*dG*kA*kA*kT) [Compound 1074567],YAP1 (% UTC),"Table 21, Yap1 mRNA, percent of untreated control, 3-10-3 cEt gapmers targeting SEQ ID NO.: 1 and 2",38 % UTC
1075782 (kT*kA*kT*dT*dA*dG*dG*dT*dT*dT*d[5mC]*d[5mC]*d[5mC]*kG*kT*kT; antisense) [Compound 1075782],YAP1 (% UTC),[8],10 % UTC
1076424 (kA*k[5mC]*kT*dT*dA*dA*d[5mC]*d[5mC]*dT*dG*dA*d[5mC]*dA*kG*k[5mC]*kT; antisense) [Compound 1076424],YAP1 (% UTC),[13],76 % UTC
1074739 (kG*kA*k[5mC]*dT*d[5mC]*dT*dT*dA*dG*dG*dT*d[5mC]*dT*k[5mC]*k[5mC]*kT; antisense) [compound 1074739],YAP1 (% UTC),[12],24 % UTC
1075109 (antisense kA*k[5mC]*kT*dA*dA*dA*dA*dA*d[5mC]*dA*dT*dT*dG*kT*kG*kG) [Compound 1075109],YAP1 (% UTC),[7],71 % UTC
716508 (antisense k[5mC]*kT*kA*dG*dG*dT*dA*dG*dA*dA*dT*dT*dT*k[5mC]*kA*kT) [Compound 716508],YAP1 (% UTC),[4],67 % UTC
716572 (k[5mC]*kA*kG*dT*dA*dA*dG*dA*dA*dG*d[5mC]*d[5mC]*dA*kA*kA*kA; antisense) [Compound 716572],YAP1 (% UTC),[5],122 % UTC
1074802 (kG*kG*k[5mC]*dA*d[5mC]*dT*dA*d[5mC]*dA*dT*dT*dT*dA*kG*kA*kA; antisense) [compound 1074802],YAP1 (% UTC),[10],37 % UTC
716438 (kA*kT*kT*dT*dT*dT*dG*dG*d[5mC]*dT*dT*dG*dT*k[5mC]*kA*kG; antisense) [Compound 716438],YAP1 (% UTC),[9],32 % UTC
1074291 (antisense k[5mC]*kA*k[5mC]*dT*d[5mC]*dT*dG*dA*d[5mC]*dT*dG*dA*dT*kT*k[5mC]*kT) [compound 1074291],YAP1 (% UTC),[12],11 % UTC
1076296 (kT*kA*kT*dA*dA*dA*dG*dA*d[5mC]*d[5mC]*d[5mC]*dA*dA*kT*kG*k[5mC]; antisense) [Compound 1076296],YAP1 (% UTC),[13],68 % UTC
716578 (kA*kA*k[5mC]*dT*dT*dT*d[5mC]*dA*d[5mC]*dA*dT*dA*dA*kA*k[5mC]*kT; antisense) [Compound 716578],YAP1 (% UTC),[5],102 % UTC
1075304 (k[5mC]*kA*k[5mC]*dG*dG*dG*dT*dA*d[5mC]*d[5mC]*dA*dG*dA*kA*kA*kA; antisense) [Compound 1075304],YAP1 (% UTC),[13],50 % UTC
1075184 (k[5mC]*kA*kA*dG*dA*dA*d[5mC]*dA*d[5mC]*dT*dG*dG*dT*kA*kT*kT; antisense) [compound 1075184],YAP1 (% UTC),[11],67 % UTC
716482 (k[5mC]*kT*kA*dT*d[5mC]*d[5mC]*dA*dG*dG*dG*dT*d[5mC]*dA*kA*kT*kT; antisense) [Compound 716482],YAP1 (% UTC),[5],83 % UTC
1074376 (antisense kA*kA*k[5mC]*dG*dG*dT*dT*d[5mC]*dT*dG*d[5mC]*dT*dG*kT*kG*kA) [Compound 1074376],YAP1 (% UTC),[13],44 % UTC
716413 (kT*k[5mC]*k[5mC]*dA*dA*dG*dG*dT*d[5mC]*d[5mC]*dA*d[5mC]*dA*kT*kT*kT; antisense) [Compound 716413],YAP1 (% UTC),[5],79 % UTC
1074992 (antisense k[5mC]*kA*kA*dT*dT*dA*dT*dT*dT*dG*dA*d[5mC]*dT*k[5mC]*k[5mC]*k[5mC]) [compound 1074992],YAP1 (% UTC),[11],63 % UTC
1074667 (antisense k[5mC]*k[5mC]*k[5mC]*dA*dA*d[5mC]*dA*dA*d[5mC]*dA*dT*dG*d[5mC]*kT*kA*kT) [Compound 1074667],YAP1 (% UTC),[2],15 % UTC
1074118 (antisense k[5mC]*kA*k[5mC]*dT*d[5mC]*dG*dG*dA*d[5mC]*d[5mC]*dT*dG*d[5mC]*kG*kG*k[5mC]) [Compound 1074118],YAP1 (% UTC),[8],66 % UTC
716558 (k[5mC]*kT*k[5mC]*dT*dT*dA*d[5mC]*dA*dT*d[5mC]*dT*dA*dA*kA*kA*k[5mC]; antisense) [Compound 716558],YAP1 (% UTC),[9],81 % UTC
1075876 (kG*kT*kA*dT*dT*dT*dA*dT*dG*dA*dT*dG*dA*kT*kT*k[5mC]; antisense) [Compound 1075876],YAP1 (% UTC),"Table 18, A-431 cells, 5,000 cells per well, free uptake, 2,000 nM modified oligonucleotide, approx. 48 hours, RTS4814, normalized to RIBOGREEN, Yap1 mRNA as percent of untreated control",6 % UTC
